Assay results as given in patent US4439426A, “Semisynthetic macrolidic antibiotics, intermediate compounds for their preparation and related pharmaceutical compositions containing them” (priority 1981, dated 1984).
Values after ≈ are worked out from the molar mass of the structure shown. Where two headings read alike, the source gives them in different places.

What was measured:
[1] = test system: Streptococcus faecalis subs. zymogenes LRP 61; assay: Minimum bactericidal concentration (MBC); assay type: cell-based
Excerpt: (§1) the bacterial power, expressed as the minimum bactericidal power (MBC) against some Gram positive aerobic stocks (table 5).

[2] = test system: Staphylococcus aureus ATCC 6538 P LRP 39; assay: Minimum bactericidal concentration (MBC); assay type: cell-based
Excerpt: as §1

[3] = test system: Streptococcus pneumoniae ATCC 6303 LRP 35; assay: Minimum bactericidal concentration (MBC); assay type: cell-based
Excerpt: as §1

[4] = test system: Corynebacterium diphteriae LRP 24; assay: Minimum bactericidal concentration (MBC); assay type: cell-based
Excerpt: as §1

[5] = test system: Streptococcus pyogenes ATCC 8668 LRP 34; assay: Minimum bactericidal concentration (MBC); assay type: cell-based
Excerpt: as §1

[6] = Stability in acidic environment at 25° C. (half-life of initial microbiological activity); assay type: physicochemical; conditions: aqueous solution, read-out: t 1/2 (converted)
Method: Stability in acidic environnment at 25° C. of the novel
Note: t 1/2 represents the time for reducing to one half the initial powe
of the antibiotic determined by microbiological method through diffusion
on a plate using the test stock Microccocus luteus (Sarcina lutea) ATCC

Which MBC/MIC [1] does the source give for `CC[C@H]1OC(=O)[C@H](C)[C@@H](O[C@H]2C[C@@](C)(OC)[C@@H](O)[C@H](C)O2)[C@H](C)[C@@H](O[C@@H]2O[C@H](C)C[C@H](N(C)C)[C@H]2O)[C@](C)(O)C[C@](C)(F)C(=O)[C@H](C)[C@@H](O)[C@]1(C)O` [P-80206, (8S)-8-fluoroerythromycin A] here?
Its MBC/MIC is 16.

What about the MBC ([1]; Enterococcus faecalis, read-out: Minimum bactericidal concentration (MBC)) of the same molecule?
Its MBC is 6.25 µg/mL (≈ 8.31 µM).

And the MBC/MIC [2]?
The MBC/MIC was 16.

And the MBC ([2]; Staphylococcus aureus, ATCC6538, read-out: Minimum bactericidal concentration (MBC))?
Its MBC is 3.12 µg/mL (≈ 4.15 µM).

What about the MBC/MIC [3] of the same molecule?
Its MBC/MIC is 4.

What about the MBC ([3]; Streptococcus pneumoniae, ATCC6303, read-out: Minimum bactericidal concentration (MBC)) of the same molecule?
Its MBC is 0.195 µg/mL (≈ 0.259 µM).

What about the MBC/MIC [4] of the same molecule?
The MBC/MIC was 8.

What about the MBC ([4]; Corynebacterium, LRP24, read-out: Minimum bactericidal concentration (MBC)) of the same molecule?
Its MBC is 0.097 µg/mL (≈ 0.129 µM).

And the MBC/MIC [5]?
The MBC/MIC was 8.

And the MBC ([5]; Streptococcus pyogenes, ATCC8668, read-out: Minimum bactericidal concentration (MBC))?
Its MBC is 0.78 µg/mL (≈ 1.04 µM).

What about the half-life ([6]; pH 2.0, 25° C.) of the same molecule?
The half-life was 9 h.

And the half-life ([6]; pH 3.0, 25° C.)?
Its half-life is 82.5 h.
